Laboratory results taken from a melting point compilation (Tetko et al.; mined from patent text by program, amines drawn as free bases though some values may be those of a salt).

Compared with `Cc1cc(CCCCCCc2c(Cl)cc(C3=NCCO3)cc2Cl)on1`, `COC1=C(C)C(=O)C(OC)=C(CCCCCC2=C(OC)C(=O)C(C)=C(OC)C2=O)C1=O` is higher in melting point: 65 to 66 °C for the first, 84 to 86 °C for the second.

Compared with `COc1ccc(-c2cc(=O)n(CC=Cc3ccc(Cl)cc3)nc2-c2ccc(OC)c(F)c2)cc1F`, `CNS(=O)(=O)c1ccc(C(=O)C=Cc2cc(-c3cc4ccccc4n3C)c(OC)cc2OC)cc1` is higher in melting point: 72.5 to 74.9 °C for the first, 129 to 131 °C for the second.

First: CN(C)C(=O)NC(=O)C(C)(C)Br
Second: CC(OC=O)C1C(=O)N([Si](C)(C)C(C)(C)C)C1CC(=O)O (mixture of isomers)
The melting point of the first is lower: 98 to 100 °C for the first, 109 to 110 °C for the second.

Compared with `NC(=O)NCCSCC(=O)O`, `CC(=O)CCc1ccc(OCCCC(=O)O)cc1` is lower in melting point: 135 °C for the first, 97 to 99 °C for the second.

Compared with `N#CN1CCC(Oc2c(F)c(F)c(F)c(F)c2F)(c2ccccc2)CC1`, `O=C(Nc1ccc(F)cc1)c1cn2nc(N3CCN(C(=O)c4ccccc4C(F)(F)F)CC3)ccc2n1` is lower in melting point: 117 to 120 °C for the first, 115 to 117 °C for the second.

First: CC(=O)CC1=C(C#N)C(c2cccc3nonc23)c2c[nH]nc2N1 (stereo not drawn)
Second: CN1Cc2c(-c3nc(CN)no3)ncn2-c2ccccc2C1=O
The melting point of the first is higher: 200 °C for the first, 183 to 185 °C for the second.

First: CN(CCCc1cccc(Oc2ccc(C(F)(F)F)cc2)c1)N=O
Second: CC(=O)On1cc(-c2ccccc2)c(=O)c(-c2cccc(C(F)(F)F)c2)c1
The melting point of the first is lower: 75 to 76 °C for the first, 232 to 235 °C for the second.

First: O=C(O)c1cc2cc(Cl)ccc2nn1
Second: O=C(O)CCc1c(-c2ccc(F)cc2)[nH]c2ccc(Cl)cc12
The melting point of the first is higher: 207 to 208 °C for the first, 153 to 154 °C for the second.

Compared with `O=C(O)C1Cc2c(c(Cl)cc3c(-c4cccs4)noc23)O1` (stereo not drawn), `Cn1c(N=C=O)c(-c2ccccc2)c2cc(Cl)ccc21` is lower in melting point: 249 to 251 °C for the first, 150 °C for the second.

First: CCCOc1ccccc1-c1nc2nc(NCCC(=O)OCC)ncc2c(=O)[nH]1
Second: CCOC(=O)c1cc2cc(OCCCOC)cc(NS(=O)(=O)c3ccccn3)c2[nH]1
The melting point of the first is higher: 142 to 143 °C for the first, 126 to 127 °C for the second.

First: COc1cncnc1N1CCN(CCCc2c[nH]c3ccc(CN(C)S(C)(=O)=O)cc23)CC1
Second: CCNC(=O)CC1CN=C(c2cc3cc(Oc4ccc(S(C)(=O)=O)nc4)cc(CC)c3[nH]2)S1 (stereo not drawn)
The melting point of the first is lower: 164 to 165 °C for the first, 227 to 229 °C for the second.

First: CC(CCNC1=Nc2cccc3cccc1c23)c1ccncc1 (stereo not drawn)
Second: C=CCNc1cnc(-c2ccccc2)c(-c2ccccc2)n1
The melting point of the first is higher: 220 to 221 °C for the first, 97 to 100 °C for the second.

Compared with `O=C(O)CCCOn1nnc2ccc(Cn3ccnc3)cc21`, `CCCCOC(=O)c1c(Cn2ccnc2)nc2cc(OC)c(OC)cc2c1-c1ccc(OC)c(OC)c1` is lower in melting point: 170 °C for the first, 140 to 141 °C for the second.

Compared with `COc1ccc(/C=C/S(=O)(=O)CS(=O)(=O)/C=C/c2ccc(OC)c([N+](=O)[O-])c2)cc1[N+](=O)[O-]`, `COc1ccc2cc(C(OC)(OC)C(C)OS(=O)(=O)c3ccc(C)cc3)ccc2c1` (stereo not drawn) is lower in melting point: 263 to 265 °C for the first, 148 to 150 °C for the second.

First: C=CCCCn1nnc(-c2ccc3[nH]c(CCCC)nc(=O)c3c2)n1
Second: Cc1cccc2[nH]c(=S)nc(N)c12
The melting point of the first is lower: 130 °C for the first, greater than 250 °C for the second.

First: O=S(=O)(Oc1ccc(-c2cc3ccc(OS(=O)(=O)c4ccccc4)cc3s2)cc1)c1ccccc1
Second: O=S(=O)(Nc1cccc(Br)n1)c1cc(S(=O)(=O)Nc2cccc(Br)n2)c2ccccc2c1
The melting point of the first is lower: 138 to 139 °C for the first, 205 to 208 °C for the second.

First: CCCCN(CCCC)S(=O)(=O)c1ccc(Cl)c([N+](=O)[O-])c1
Second: CCCCCCCCCCCCNC(=O)CS(=O)(=O)Nc1c(C(C)C)cccc1C(C)C
The melting point of the first is lower: 67 to 68 °C for the first, 83 to 85 °C for the second.

First: CC(C)OC(=O)NCc1cccc(-c2ccccc2)c1
Second: COC(=O)C(Cl)Cc1ccc2c(c1)NC(=O)C(Cc1ccccc1)O2 (stereo not drawn)
The melting point of the first is lower: 61 to 64 °C for the first, 124 to 127 °C for the second.

First: CN1OC(C=Cc2ccccc2)CC1(Cn1ccnc1)c1ccc2ccccc2c1 (stereo not drawn)
Second: CC(C)CN1C(=O)CC[C@H]1COC(c1ccccc1)(c1ccccc1)c1ccccc1
The melting point of the first is higher: 166 to 169 °C for the first, 91 to 93 °C for the second.

Compared with `CC(=O)c1ccc(S(=O)(=O)Nc2nnn[nH]2)cc1`, `CC(=O)c1ccc(NC(=O)Nc2cc(C(C)=O)cc(C(C)=O)c2)cc1` is higher in melting point: 150 to 151 °C for the first, 251 to 252 °C for the second.

First: CC(C)(C)OC(=O)N[C@@H](Cc1ccc(NC(=O)c2csc(NC(=O)NCc3ccccc3)n2)cc1)C(=O)O
Second: CC(C)CC(C=O)NC(=O)C(Cc1c[nH]cn1)NC(=O)C(CNC(=O)Cc1cccc2ccccc12)Cc1ccccc1 (stereo not drawn)
The melting point of the first is higher: 231 °C for the first, 105 to 109 °C for the second.

First: CS(=O)(=O)Nc1ccc([N+](=O)[O-])cc1C(=O)c1ccc(F)cc1F
Second: O=[N+]([O-])c1cccc(-c2nnc(Nc3cccc(Br)c3)s2)c1
The melting point of the first is lower: 172 to 178 °C for the first, 228 to 231 °C for the second.

First: O=[N+]([O-])c1cc2c(cc1[N+](=O)[O-])OC(CC(F)(F)F)(C(F)(F)F)O2
Second: O=[N+]([O-])c1cc(C(F)(F)F)cc(C(F)(F)F)c1S(=O)(=O)Oc1ccccc1
The melting point of the first is higher: 101 to 103 °C for the first, 83 to 84 °C for the second.

First: CCOC(=O)c1cn(C2CC2)c2nc3cc(F)c(F)cc3cc2c1=O
Second: CCOC(=O)c1cn(C)c2cc(F)c(F)cc2c1=O
The melting point of the first is higher: 230 °C for the first, 210 to 212 °C for the second.

Compared with `COc1nc(C)nc2c1-c1ccc(Cl)cc1C(c1ccccc1)=NC2`, `O=C1Cc2cc3c(cc2C(c2ccccc2)=NN1c1ccc([N+](=O)[O-])cc1)OCO3` is higher in melting point: 185 to 187 °C for the first, greater than 200 °C for the second.

First: Nc1nc(N)nc(N2CCSCC2)n1
Second: C[C@@H]1CN(c2ncc3ncnc(Nc4ccc(F)c(Cl)c4)c3n2)CC[C@@H]1N (relative stereo)
The melting point of the first is higher: 237 to 239 °C for the first, 161 to 164 °C for the second.

First: CC(=O)Nc1[nH]cc(-c2ccc(NS(=O)(=O)c3cccc(Cl)c3Cl)cc2)c1C(N)=O
Second: O=C(CCCl)Nc1ccc(C(=O)c2ccccc2)cc1
The melting point of the first is higher: 265 °C for the first, 135 to 136 °C for the second.

First: CCSc1cc(C(=O)O)cc(N)c1Oc1ccccc1
Second: Nc1nc2cc(C(=O)c3ccccc3)ccc2n1CCC(=O)O
The melting point of the first is lower: 154 to 155 °C for the first, 325 to 330 °C for the second.

Compared with `COC(=O)/C=C/C1=C(C)C2(CCC1(C)C)SCCS2`, `CC(=O)C1(O)CCC2C3C=C(Cl)C4=CC(=O)OCC4(C)C3CCC21C` (stereo not drawn) is higher in melting point: 79.5 to 88.1 °C for the first, 218 to 221 °C for the second.

`CP(C)(=O)CNc1cc(Oc2ncc(Cl)cc2Cl)ccc1[N+](=O)[O-]` and `COc1cc(CCNc2ncnc3scnc23)ccc1O` cannot be ordered by melting point: 153 to 155 °C for the first, 151 to 154 °C for the second.

First: O=S(=O)(c1ccc(Cl)cc1)C(CCl)Sc1ccc(Br)cc1 (stereo not drawn)
Second: O=C(O)CON=C(c1ccc(Cl)cc1)c1ccc(Cl)cc1
The melting point of the first is lower: 76 to 78 °C for the first, 147 to 148 °C for the second.

First: Cc1ccc(N(CCN2CCC(C(=O)c3ccc(F)cc3)CC2)C(=O)c2ccc([N+](=O)[O-])cc2)cc1
Second: O=C(NC1CCN(CCCOc2ccc3ccc(=O)oc3c2)CC1)c1ccccc1
The melting point of the first is higher: 175 to 178 °C for the first, 157 to 158 °C for the second.

First: CC(=O)Nc1c(F)ccc2c1CCC(C)N2 (stereo not drawn)
Second: O=C(/C=C1\CCc2ccc(F)cc21)NC1CC1
The melting point of the first is higher: 168 to 170 °C for the first, 124 to 127 °C for the second.

First: CC(=C1SC(=O)NC1=O)c1ccc(OCCOc2c(-c3ccc(F)cc3)n(C)c3ccc(F)cc3c2=O)cc1
Second: O=C1c2ccccc2C(=O)N1CCCOc1cccc2[nH]c3ccccc3c12
The melting point of the first is higher: 245 to 248 °C for the first, 171 to 172 °C for the second.

Compared with `O=C(NCCCCCCCCn1ccnc1)c1ccc(Cl)s1`, `CCCCCCCCCCCCC(C)(CS(=O)(=O)O)C(=O)O` (stereo not drawn) is lower in melting point: 95 to 97 °C for the first, 84 to 85 °C for the second.

First: COc1cc2c(c(OC(C)=O)c1OC)=NC(=O)C(=O)N=2
Second: COc1cccc2c(=O)n3ccsc3nc12
The melting point of the first is higher: 321 to 322 °C for the first, 230 to 232 °C for the second.

First: N#Cc1cc(O)cc2cc(-c3ccc(O)c(F)c3)oc12
Second: Cc1oc(C(N)=O)c(C)c1-c1nc2ccc(C(=O)c3ccccc3)cc2[nH]1
The melting point of the first is higher: greater than 300 °C for the first, 143 to 146 °C for the second.

Compared with `CCS(=O)(=O)Nc1nc(CN2CCN(C(c3ccccc3)c3ccccc3)CC2)cs1`, `Cc1noc(C)c1S(=O)(=O)Nc1cccc(C=C2c3ccccc3CCc3ccccc32)c1` is lower in melting point: 159 to 160 °C for the first, 149 °C for the second.

First: C=C(c1ccccc1)c1cccc(NS(=O)(=O)C(F)(F)F)c1
Second: COc1cc2c(cc1OCc1ccccc1)CCN(Cc1cccc([N+](=O)[O-])c1)C2
The melting point of the first is lower: 55 to 59 °C for the first, 109 to 110 °C for the second.

First: CCOC(=O)NN=Cc1ccc2ccccc2n1
Second: CCOC(=O)/C=C/C=C/c1cc2cc(N(C)C)ccc2s1
The melting point of the first is higher: 163 to 165 °C for the first, 140 to 142 °C for the second.

First: COC(C)(C)c1cc(C(C)(C)OC)cc(C(C)(C)OC)c1
Second: CCOC(=O)c1cn(-c2cc(NC(=O)OC(C)(C)C)c(F)cc2F)c2c(Cl)c(N)c(F)cc2c1=O
The melting point of the first is lower: 44 °C for the first, 143 to 150 °C for the second.

First: O=C(CN1CCC(n2c(=O)[nH]c3ccccc32)CC1)Nc1ccc(C2CCCCC2)cc1
Second: COC(=O)[C@H]1CC[C@H](n2ccn(-c3ccc(C4(C)CCN(C(=O)C(F)(F)F)CC4)cc3)c2=O)CC1
The melting point of the first is lower: 130 to 132 °C for the first, 182 to 184 °C for the second.

First: COC(=O)N1CCC[C@@H](OC)[C@@H]1CC(=O)Cn1cnc2ccc(C(F)(F)F)cc2c1=O (relative stereo)
Second: CC1COCc2nc3c(N)nc4cc(CCS(C)(=O)=O)ccc4c3n21 (stereo not drawn)
The melting point of the first is lower: 137 to 140 °C for the first, 205 to 206 °C for the second.

First: COC(=O)C(C#N)=C(Nc1cccnc1)SC
Second: COC(=O)c1cncc(O)c1
The melting point of the first is higher: greater than 260 °C for the first, 186 to 187 °C for the second.

First: O=C(O)C1CSC(c2ccccc2O)N1 (stereo not drawn)
Second: O=C1Nc2ccccc2C12CCNCC2
The melting point of the first is lower: 169 °C for the first, 184 to 186 °C for the second.

First: CC(C)(C)NCCOc1ccccc1CCCc1cccc2[nH]ccc12
Second: OCc1cn(Cc2cc(OCc3ccccc3)cc(OCc3ccccc3)c2)cc1-c1ccccc1
The melting point of the first is lower: 114 °C for the first, 115 to 116 °C for the second.

Compared with `CN1CCOC(CC23CC(c4ccccc42)c2ccccc23)C1` (stereo not drawn), `CC1(C)c2cc(OS(C)(=O)=O)ccc2OC1O` (stereo not drawn) is lower in melting point: 136 to 137 °C for the first, 69 to 72 °C for the second.

First: CC(C)N(CCC(CCN(C(C)C)C(C)C)(C(N)=O)c1c(Cl)cccc1Cl)C(C)C
Second: CC(CCCC(C)C1CCC2C3CC=C4C(C)(C)C(O)CCC4(C)C3CCC12C)CO[Si](C)(C)C(C)(C)C (stereo not drawn)
The melting point of the first is higher: 168 to 170 °C for the first, 88.5 °C for the second.

Compared with `CC1(O)CCC2C3CCC45OC4(C)C(O)=C(C#N)CC5(C)C3CCC21C` (stereo not drawn), `O=Cc1cc(S(=O)(=O)O)c2cccnc2c1O` is higher in melting point: 170 to 171 °C for the first, 286 to 288 °C for the second.
